The record followed here is ChEMBL document CHEMBL4296182, “CO-ADD screening of NIH NCI Diversity Set V”.

≈ marks a conversion by molar mass, not a printed value. Some results are limits rather than exact numbers.

One experiment deals with Klebsiella pneumoniae. The experiment in a line: microbe, parasite or virus in culture. The conditions noted are these: ATCC 700603, 18 h, ASSAY_TEST Inhibition of Bacterial Growth, detection method Absorption (OD600), MEDIA CAMHB, plate type 384well, NBS, CORNING #3640.
Another experiment deals with Escherichia coli. The experiment in a line: microbe, parasite or virus in culture. The conditions noted are these: ATCC 25922, 18 h, ASSAY_TEST Inhibition of Bacterial Growth, detection method Absorption (OD600), MEDIA CAMHB, plate type 384well, NBS, CORNING #3640.
A further experiment relates to HEK293. The experiment in a line: cells. Format: functional. The conditions noted are these: Homo sapiens, ATCC CRL1573, HEK293; ASSAY_TEST Inhibition of Cell Viability; detection method Resazurin; Fluorescence (ex560/em590); MEDIA DMEM with 10% FBS; plate type 384well; TC; CORNING #3712; time 18 hr.
In a further experiment the test system is Pseudomonas aeruginosa. The experiment is described as follows: microbe, parasite or virus in culture. The conditions noted are these: ATCC 27853, 18 h, ASSAY_TEST Inhibition of Bacterial Growth, detection method Absorption (OD600), MEDIA CAMHB, plate type 384well, NBS, CORNING #3640.
The subject of the next experiment is Staphylococcus aureus. The experiment is described as follows: microbe, parasite or virus in culture. The conditions noted are these: ATCC 43300, 18 h, ASSAY_TEST Inhibition of Bacterial Growth, detection method Absorption (OD600), MEDIA CAMHB, plate type 384well, NBS, CORNING #3640.
The test system of a further experiment is Acinetobacter baumannii. The experiment is described as follows: microbe, parasite or virus in culture. The conditions noted are these: ATCC 19606, 18 h, ASSAY_TEST Inhibition of Bacterial Growth, detection method Absorption (OD600), MEDIA CAMHB, plate type 384well, NBS, CORNING #3640.
A further experiment deals with Candida albicans. The experiment in a line: microbe, parasite or virus in culture. The conditions noted are these: ATCC 90028, ASSAY_TEST Inhibition of Fungal Growth, detection method Absorption (OD530), plate type 384well, NBS, CORNING #3640.

Description for Acinetobacter baumannii: Antibacterial activity against Acinetobacter baumannii ATCC 19606 (CO-ADD:GN_034); MIC in CAMBH media using NBS plates, by OD600
Description for Candida albicans: Antifungal activity against Candida albicans ATCC 90028 (CO-ADD:FG_001); MIC in YNB media using NBS plates, by OD630
Description for Cryptococcus neoformans: Antifungal activity against Cryptococcus neoformans H99 ATCC 208821 (CO-ADD:FG_002); MIC in YNB media using NBS plates, by Resazurin OD(600-570)
Description for Escherichia coli: Antibacterial activity against Escherichia coli ATCC 25922 (CO-ADD:GN_001); MIC in CAMBH media using NBS plates, by OD(600)
Description for Klebsiella pneumoniae: Antibacterial activity against Klebsiella pneumoniae MDR ATCC 70063 (CO-ADD:GN_003); MIC in CAMBH media using NBS plates, by OD(600)
Description for Pseudomonas aeruginosa: Antibacterial activity against Pseudomonas aeruginosa ATCC 27853 (CO-ADD:GN_042); MIC in CAMBH media using NBS plates, by OD(600)
Description for Staphylococcus aureus: Antibacterial activity against Staphylococcus aureus MRSA ATCC 43300 (CO-ADD:GP_020); MIC in CAMBH media, using NBS plates, by OD(600)

On to `O=[N+]([O-])c1ccc(/C=[N+](\[O-])CCO)o1`, for which the MIC against Klebsiella pneumoniae was over 10 µM; in the experiment with Escherichia coli, 10 µM (≈ 2 µg/mL); in the experiment with Pseudomonas aeruginosa, over 10 µM; with Cryptococcus neoformans, over 10 µM; against Staphylococcus aureus, over 10 µM; in the experiment with Acinetobacter baumannii, over 10 µM. Besides, in the experiment on Candida albicans, the MIC was over 10 µM. The CC50 with HEK293 was over 10 µM.

Take `C#CC(c1ccccc1)(c1ccccc1)n1ccnc1`: the MIC in the experiment on Klebsiella pneumoniae, with Escherichia coli, with Pseudomonas aeruginosa, in the experiment with Cryptococcus neoformans, with Staphylococcus aureus and against Acinetobacter baumannii was over 10 µM in each case. This molecule also yielded an MIC with Candida albicans of over 10 µM. The same molecule displayed a CC50 with HEK293 of over 10 µM.

As for `O=C(c1cccnc1)C1Cc2ccccc2C1=O` (stereo not given), the MIC in the experiment on Klebsiella pneumoniae is 5 µM (≈ 1.19 µg/mL); in the experiment on Escherichia coli, over 10 µM; in the experiment on Pseudomonas aeruginosa, over 10 µM; with Cryptococcus neoformans, over 10 µM; with Staphylococcus aureus it was over 10 µM; in the experiment on Acinetobacter baumannii, over 10 µM. The molecule also gave an MIC against Candida albicans of over 10 µM. Besides, the CC50 with HEK293 is over 10 µM.

With `CO[C@@]12[C@H](COC(N)=O)C3=C(C(=O)C(C)=C(N)C3=O)N1C[C@@H]1N[C@@H]12` [MITOMYCIN], the MIC in the experiment with Klebsiella pneumoniae was over 10 µM; against Escherichia coli, 1.25 µM (≈ 0.418 µg/mL); in the experiment with Pseudomonas aeruginosa it was 10 µM (≈ 3.34 µg/mL); with Cryptococcus neoformans, over 10 µM; with Staphylococcus aureus it was 0.156 µM (≈ 0.0523 µg/mL); in the experiment with Acinetobacter baumannii, 5 µM (≈ 1.67 µg/mL). In the experiment with Candida albicans, the MIC was over 10 µM. Moreover, it took 9.02 µM to reach half-maximal cytotoxicity with HEK293 (CC50).

For the molecule `O=[N+]([O-])c1oc2ccc3ccccc3c2c1CCO`, the MIC against Klebsiella pneumoniae was over 10 µM; in the experiment with Escherichia coli, 5 µM (≈ 1.29 µg/mL); with Pseudomonas aeruginosa, over 10 µM; against Cryptococcus neoformans it was over 10 µM; in the experiment on Staphylococcus aureus it was 2.5 µM (≈ 0.643 µg/mL); against Acinetobacter baumannii, over 10 µM. Moreover, the MIC in the experiment with Candida albicans is over 10 µM. In the experiment with HEK293, this molecule returned a CC50 of 1.13 µM.

Consider `CNc1ncn(-c2c(C)cccc2C)c(=O)n1`, for which the MIC in the experiment with Klebsiella pneumoniae, against Escherichia coli, with Pseudomonas aeruginosa, against Cryptococcus neoformans, against Staphylococcus aureus and against Acinetobacter baumannii was over 10 µM throughout. The MIC against Candida albicans is over 10 µM. The cytotoxic concentration (CC50) in the experiment with HEK293 is over 10 µM.

Take `CCN1CCCC(Sc2nc3c(=S)n(C)c(=O)n(C)c3[nH]2)C1` (stereo not given): the MIC in the experiment on Klebsiella pneumoniae, with Escherichia coli, with Pseudomonas aeruginosa, in the experiment with Cryptococcus neoformans, in the experiment with Staphylococcus aureus and with Acinetobacter baumannii was over 10 µM each time. Besides, the MIC against Candida albicans was over 10 µM. Further, the half-maximal cytotoxic concentration (CC50) in the experiment with HEK293 was over 10 µM.

In the case of `Cc1ccccc1NC(=O)NCCN1CC1`, the MIC in the experiment with Klebsiella pneumoniae, against Escherichia coli, in the experiment on Pseudomonas aeruginosa, against Cryptococcus neoformans, against Staphylococcus aureus and against Acinetobacter baumannii was over 10 µM in each case. The molecule also had an MIC with Candida albicans of over 10 µM. This molecule returned a half-maximal cytotoxic concentration (CC50) in the experiment with HEK293 of over 10 µM.

For the molecule `CC[C@@]1(O)C(=O)OCc2c1cc1n(c2=O)Cc2cc3c(NC(=O)CN)cccc3nc2-1`, the MIC in the experiment on Klebsiella pneumoniae, against Escherichia coli, against Pseudomonas aeruginosa, in the experiment with Cryptococcus neoformans, with Staphylococcus aureus and against Acinetobacter baumannii was over 10 µM each time. The same molecule had an MIC against Candida albicans of over 10 µM. Also, it took 0.6 µM to reach half-maximal cytotoxicity in the experiment with HEK293 (CC50).

With `Cc1nc(/N=N/c2ccccc2)[nH]c1/N=N/c1ccccc1`, the MIC in the experiment with Klebsiella pneumoniae, against Escherichia coli, in the experiment with Pseudomonas aeruginosa, in the experiment on Cryptococcus neoformans, in the experiment on Staphylococcus aureus and in the experiment on Acinetobacter baumannii was over 10 µM each time. Besides, the MIC against Candida albicans is over 10 µM. In the experiment on HEK293, the half-maximal cytotoxic concentration (CC50) was over 10 µM.

In the case of `O=[N+]([O-])c1ccc(-c2ccccc2)c([As](=O)(O)O)c1`, the MIC against Klebsiella pneumoniae, with Escherichia coli, against Pseudomonas aeruginosa, in the experiment with Cryptococcus neoformans, against Staphylococcus aureus and with Acinetobacter baumannii was over 10 µM throughout. In the experiment on Candida albicans, this molecule had an MIC of over 10 µM. In the experiment on HEK293, the cytotoxic concentration (CC50) was over 10 µM.

In the case of `Sc1nc2ccc(Cl)cc2s1`, the MIC against Klebsiella pneumoniae, in the experiment on Escherichia coli, in the experiment with Pseudomonas aeruginosa, in the experiment on Cryptococcus neoformans, with Staphylococcus aureus and in the experiment with Acinetobacter baumannii was over 10 µM throughout. For the same molecule, the MIC against Candida albicans came to 10 µM (≈ 2.02 µg/mL). The molecule also displayed a half-maximal cytotoxic concentration (CC50) with HEK293 of over 10 µM.

For the molecule `Clc1ccc(SCNc2ccccc2Cl)cc1`, the MIC against Klebsiella pneumoniae, against Escherichia coli, in the experiment with Pseudomonas aeruginosa, against Cryptococcus neoformans, in the experiment on Staphylococcus aureus and against Acinetobacter baumannii was over 10 µM each time. For the same molecule, the MIC in the experiment with Candida albicans is over 10 µM. Further, in the experiment with HEK293, the CC50 was over 10 µM.

For `O=Cc1ccc(O)c2ncccc12`, the MIC in the experiment with Klebsiella pneumoniae was over 10 µM; with Escherichia coli, over 10 µM; in the experiment with Pseudomonas aeruginosa, over 10 µM; with Cryptococcus neoformans it was 1.25 µM (≈ 0.216 µg/mL); against Staphylococcus aureus it was over 10 µM; in the experiment with Acinetobacter baumannii, over 10 µM. In addition, in the experiment with Candida albicans, the MIC came to 0.625 µM (≈ 0.108 µg/mL). Besides, the CC50 in the experiment on HEK293 was over 10 µM.

In the case of `Cc1cc2cc3c(O)nc(O)nc3nc2cc1C`, the MIC against Klebsiella pneumoniae, against Escherichia coli, in the experiment with Pseudomonas aeruginosa, against Cryptococcus neoformans, against Staphylococcus aureus and in the experiment on Acinetobacter baumannii was over 10 µM in each case. Besides, the MIC against Candida albicans was over 10 µM. In the experiment with HEK293, the CC50 is over 10 µM.

Turning to `Nc1ccc(S(=O)(=O)Nc2cnc3ccccc3n2)cc1` [SULFAQUINOXALINE], the MIC against Klebsiella pneumoniae, in the experiment on Escherichia coli, with Pseudomonas aeruginosa, with Cryptococcus neoformans, against Staphylococcus aureus and with Acinetobacter baumannii was over 10 µM each time. Further, the MIC against Candida albicans was over 10 µM. The CC50 in the experiment on HEK293 was over 10 µM.

Regarding `c1ccc2nc(OCCN3CC3)ccc2c1`, the MIC against Klebsiella pneumoniae, in the experiment on Escherichia coli, with Pseudomonas aeruginosa, with Cryptococcus neoformans, in the experiment on Staphylococcus aureus and in the experiment on Acinetobacter baumannii was over 10 µM throughout. For the same molecule, in the experiment with Candida albicans, the MIC was over 10 µM. Besides, the CC50 with HEK293 was over 10 µM.

On to `CN(C)c1ccc(/N=N/c2ccccn2)cc1`, for which the MIC against Klebsiella pneumoniae, against Escherichia coli, against Pseudomonas aeruginosa, against Cryptococcus neoformans, with Staphylococcus aureus and against Acinetobacter baumannii was over 10 µM each time. The molecule further had an MIC in the experiment with Candida albicans of 10 µM (≈ 2.26 µg/mL). Further, the 50% cytotoxic concentration (CC50) with HEK293 was over 10 µM.

`O=[N+]([O-])c1cnc(Sc2ccncn2)s1`: the MIC against Klebsiella pneumoniae was over 10 µM; in the experiment on Escherichia coli it was over 10 µM; with Pseudomonas aeruginosa, over 10 µM; in the experiment with Cryptococcus neoformans, 5 µM (≈ 1.2 µg/mL); in the experiment with Staphylococcus aureus, over 10 µM; in the experiment with Acinetobacter baumannii, over 10 µM. In the experiment with Candida albicans, this molecule yielded an MIC of 5 µM (≈ 1.2 µg/mL). In addition, the half-maximal cytotoxic concentration (CC50) in the experiment on HEK293 was over 10 µM.

On to `CCOC(=O)/C(C#N)=C1\SS/C(=C(/C#N)C(=O)OCC)S1`, for which the MIC with Klebsiella pneumoniae, against Escherichia coli, against Pseudomonas aeruginosa, against Cryptococcus neoformans, against Staphylococcus aureus and against Acinetobacter baumannii was over 10 µM throughout. Further, the MIC in the experiment with Candida albicans was over 10 µM. Also, the cytotoxic concentration (CC50) with HEK293 was over 10 µM.
